Columns and labels:
[1] = test system: microtubules (tubulin polymer); test: Radiolabeled ligand binding assays; conditions: for potency relative to 1 in inhibiting the binding of radiolabeled paclitaxel to microtubules: relative to dictyostatin 1
Protocol: The abilities of test agents to inhibit the binding of radiolabeled forms of the microtubule stabilizers paclitaxel, discodermolide and epothilone B from tubulin polymer were determined.
[^3H]Paclitaxel, [^3H]discodermolide and [^14C]epothilone B solutions were prepared as 125 μM stock solutions in 50% DMSO. Radiolabeled compound (final concentration, 4.0 μM) and test agents at final concentrations noted in the text and tables were mixed in 50 μL of 4:1 (v/v) 0.75 M aqueous MSG/DMSO and warmed to 37° C. Meanwhile, a reaction mixture containing 0.75 M MSG, 2.5 μM tubulin, and 25 μM ddGTP was prepared and incubated at 37° C. for 30 min to form microtubuless. A 200 μL aliquot of the microtubule mixture was added to the drug mixtures, and incubation continued for 30 min at 37° C. Reaction mixtures were centrifuged in an Eppendorf 5417C centrifuge at 14,000 rpm for 20 min at room temperature. Radiolabel in the supernatants (100 μL) was determined by scintillation spectrometry.

[2] = test system: purified bovine brain tubulin; test: Tubulin polymerization assay (turbidity); type: biochemical; conditions: tubulin 1 mg/mL ± MAPs ± GTP, agents at 10 and 40 μM, 0 to 30° C.
Protocol: The abilities of the new compounds to cause tubulin polymerization were determined under reaction conditions consisting of purified bovine brain tubulin (1 mg/mL) in the presence or absence of microtubule-associated proteins (MAPs, 0.75 mg/mL) and GTP (100 μM). Test agents were initially screened at 10 and 40 μM. In these experiments, test agent-induced assembly of soluble tubulin into polymer, with respect to the presence and absence of cofactors and at different temperatures, was monitored in a multi-cuvette, temperature-controlled spectrophotometer via development of turbidity in the solution. The initial temperature was closely controlled at 0° C., then rapidly raised to 10° C., to 20° C., then finally to 30° C. to determine both the temperature at which a test agent induced assembly as well as the extent of agent-induced assembly. The temperature increases were followed by a rapid decrease in temperature back to 0° C. to determine the cold-stability of polymer formed.
Tubulin assembly was monitored turbidimetrically in Gilford 250 spectrophotometers equipped with electronic temperature controllers as described previously (ter Haar et al., 1996). The reaction mixtures without the compounds consisted of tubulin (1 mg/ml), heat-treated MAPs (0.75 mg/ml, if present), GTP (100 μM, if present), and 0.1M (4-morpholinyl)ethane sulfonate (MeS). Baselines were established after addition of all reaction components except the compounds to the cuvettes held at 0° C. Compounds, at 10 μM or 40 μM final concentration, were then added and each reaction mixture (0.25 mL final volume) was subjected to the indicated temperature changes.

[3] = test agent 4 μM, radiolabel 4.0 μM, 37° C.

## C=C/C=C\[C@H](C)[C@H](O)[C@@H](C)[C@H](O)CC[C@H](C)C[C@H](C)[C@@H](O)[C@@H](C)/C=C\[C@@H](O)C[C@H](O)[C@H](C)/C=C/C=C\C(=O)OC [Compound 50, (2Z,4E,6R,7S,9S,10Z,12S,13R,14S,16S,19R,20S,21S,22S,23Z)-Methyl-7,9,13,19,21-penta-hydroxy-6,12,14,16,20,22-hexamethylhexacosa-2,4,10,23,25-pentaenoate]
[1]
  potency relative to 1 in inhibiting the binding of radiolabeled paclitaxel to microtubules: ca. 60%
[1]; [3]
  Percent inhibition of radiolabel from microtubules, [3H]Paclitaxel: 42 ± 1 (3) %
[2]
  test agent-induced tubulin assembly, turbidity profile (in words): caused tubulin assembly at temperatures lower than 30 °C

## C=CC=CC(C)C1OC(=O)C=CC=CC(C)C(O)CC(O)C=CC(C)C(O)C(C)CC(C)CCC(O)C1C [Compound 59, (8S,10S,14R,20S)-Tetrahydroxy-(7R,13S,15S,17S,21s)-pentamethyl-(22S)-((1S)-methylpenta-2,4-dienyl)-oxacyclodocosa-3,5,11-trien-2-one]
[1]; [3]
  Percent inhibition of radiolabel from microtubules, [3H]Paclitaxel: 7 ± 2 (3) %
[2]
  test agent-induced tubulin assembly, turbidity profile (in words): caused tubulin assembly at temperatures lower than 30 °C

## C=CC=CC(C)C1OC(=O)C=CC=CC(C)C(O)CC(O)C=CC(C)C(O)C(C)CCCCC(O)C1C [Compound 79, (8S,10S,14R,20R)-Tetrahydroxy-(7R,13S,15S,21S)-tetramethyl-(22S)-((1S)-methylpenta-2,4-dienyl)-oxacyclodocosa-3,5,11-trien-2-one]
[1]
  potency relative to 1 in inhibiting the binding of radiolabeled paclitaxel to microtubules: ca. 60%
[1]; [3]
  Percent inhibition of radiolabel from microtubules, [3H]Paclitaxel: 48 ± 3 (3) %
[2]
  test agent-induced tubulin assembly, turbidity profile (in words): especially potent among the analogs

## C=C/C=C\[C@H](C)[C@@H]1OC(=O)/C=C\C=C\[C@@H](C)[C@@H](O)C[C@H](O)/C=C\[C@H](C)[C@H](O)[C@@H](C)C[C@@H](C)CC[C@@H](O)[C@@H]1C [dictyostatin-1, (8S,10S,14R,20R)-Tetrahydroxy-(7R,13S,15S,17S,21S)-pentamethyl-(22S)-((1S)-methylpenta-2,4-dienyl)oxacyclodocosa-3,5,11-trien-2-one, reference compound]
[1]; [3]
  Percent inhibition of radiolabel from microtubules, [3H]Discodermolide: 40 ± 3 (3) %
  Percent inhibition of radiolabel from microtubules, [3H]Paclitaxel: 75 ± 5 (3) %
  Percent inhibition of radiolabel from microtubules, [14C]Epothilone B: 88 ± 1 (3) %
[2]
  test agent-induced tubulin assembly, turbidity profile (in words): far more potent than those of paclitaxel

## C=C/C=C\[C@H](C)[C@H](OC(N)=O)[C@@H](C)[C@H](O)[C@@H](C)C/C(C)=C\[C@H](C)[C@@H](O)[C@@H](C)/C=C\[C@@H](O)C[C@@H]1OC(=O)[C@H](C)[C@@H](O)[C@H]1C [discodermolide, reference compound]
[1]; [3]
  Percent inhibition of radiolabel from microtubules, [3H]Paclitaxel: 76 ± 6 (4) %
  Percent inhibition of radiolabel from microtubules, [14C]Epothilone B: 90 ± 1 (3) %
[2]
  test agent-induced tubulin assembly, turbidity profile (in words): far more potent than those of paclitaxel

Source: patent US7321046B2, “Analogs of dictyostatin, intermediates therefor and methods of synthesis thereof” (University of Pittsburgh, priority 2002, dated 2008)
